Reference: PubChem BioAssay AID190 (DTP/NCI, 2004)
Several values for one entry are separate records, joined by “and”; a condition that tells them apart may be missing. Equal entries are not always repeated. Toxic doses and inconclusive results are not listed. Rule for the calls: active = survival T/C of 150% or more; inactive = T/C below 125% in these data.

System: AKR/Lw mice, AKR lymphoma ip, median survival T/C
Assay: NCI In Vivo Anticancer Drug Screen. Data for tumor model Lymphoma AKR (Transplanted) (intraperitoneal) in AKR/Lw mice
Conditions: endpoint: median survival time, higher = longer survival
Method: The antitumor activity of compounds was measured in mice bearing transplantable tumors. Survival or tumor size were measured and the results are expressed as the measurement made in the treated group (T) divided by the measurement made in the vehicle treated control group (C). The tumor model used in this assay is Lymphoma AKR (Transplanted) (intraperitoneal) in AKR/Lw mice

[1] = dose: 100.0 mg/kg/injection, schedule: Q01DX001 (ip), vehicle: saline
[2] = dose: 200.0 mg/kg/injection, schedule: Q01DX001 (ip), vehicle: saline
[3] = dose: 400.0 mg/kg/injection, schedule: Q01DX001 (ip), vehicle: saline
[4] = dose: 200.0 mg/kg/injection, schedule: Q01DX001 (ip), vehicle: Klucel (hydroxypropylcellulose) (HPC)

Measured: T/C

C[C@]12C=CC(=O)C=C1CC[C@@H]1[C@@H]2C(=O)C[C@@]2(C)[C@H]1CC[C@]2(O)C(=O)CO
inactive: dose: 1.5 mg/kg/injection, schedule: Q ##X008 (sc), vehicle: steriod suspending solution 108 % of control | dose: 1.5 mg/kg/injection, schedule: Q## X008 (sc), vehicle: steriod suspending solution 108 % of control | dose: 3.0 mg/kg/injection, schedule: Q ##X008 (sc), vehicle: steriod suspending solution 109 % of control | dose: 3.0 mg/kg/injection, schedule: Q## X008 (sc), vehicle: steriod suspending solution 109 % of control | dose: 5.0 mg/kg/injection, schedule: Q01DX009 (sc), vehicle: steriod suspending solution 97 % of control | dose: 6.0 mg/kg/injection, schedule: Q ##X008 (sc), vehicle: steriod suspending solution 106 % of control | dose: 6.0 mg/kg/injection, schedule: Q## X008 (sc), vehicle: steriod suspending solution 106 % of control | dose: 10.0 mg/kg/injection, schedule: Q01DX009 (sc), vehicle: steriod suspending solution 100 % of control | dose: 12.0 mg/kg/injection, schedule: Q ##X008 (sc), vehicle: steriod suspending solution 120 % of control | dose: 12.0 mg/kg/injection, schedule: Q## X008 (sc), vehicle: steriod suspending solution 120 % of control | dose: 12.5 mg/kg/injection, schedule: Q01DX001 (sc), vehicle: steriod suspending solution 108 % of control | dose: 12.5 mg/kg/injection, schedule: Q01DX008 (sc), vehicle: steriod suspending solution 94 % of control | dose: 12.5 mg/kg/injection, schedule: Q04DX003 (sc), vehicle: steriod suspending solution 112 % of control | dose: 12.5 mg/kg/injection, schedule: Q## X008 (sc), vehicle: steriod suspending solution 94 % of control | dose: 15.0 mg/kg/injection, schedule: Q04DX002 (sc), vehicle: water 96 % of control | dose: 20.0 mg/kg/injection, schedule: Q01DX009 (sc), vehicle: steriod suspending solution 108 % of control | dose: 25.0 mg/kg/injection, schedule: Q01DX001 (sc), vehicle: steriod suspending solution 108 % of control and 113 % of control | dose: 25.0 mg/kg/injection, schedule: Q01DX004 (sc), vehicle: steriod suspending solution 115 % of control | dose: 25.0 mg/kg/injection, schedule: Q01DX008 (sc), vehicle: steriod suspending solution 119 % of control | dose: 25.0 mg/kg/injection, schedule: Q01DX009 (sc), vehicle: Klucel (hydroxypropylcellulose) (HPC) 96 % of control | dose: 25.0 mg/kg/injection, schedule: Q01DX009 (sc), vehicle: steriod suspending solution 100 % of control | dose: 25.0 mg/kg/injection, schedule: Q04DX002 (sc), vehicle: steriod suspending solution 99 % of control and 100 % of control | dose: 25.0 mg/kg/injection, schedule: Q04DX003 (sc), vehicle: steriod suspending solution 87 % of control | dose: 25.0 mg/kg/injection, schedule: Q## X008 (sc), vehicle: steriod suspending solution 120 % of control | dose: 30.0 mg/kg/injection, schedule: Q04DX002 (sc), vehicle: water 94 % of control and 98 % of control | dose: 35.0 mg/kg/injection, schedule: Q01DX001 (sc), vehicle: steriod suspending solution 96 % of control | dose: 45.0 mg/kg/injection, schedule: Q01DX001 (sc), vehicle: steriod suspending solution 105 % of control | dose: 50.0 mg/kg/injection, schedule: Q01DX004 (sc), vehicle: steriod suspending solution 100 % of control | dose: 50.0 mg/kg/injection, schedule: Q01DX008 (sc), vehicle: steriod suspending solution 101 % of control | dose: 50.0 mg/kg/injection, schedule: Q01DX009 (ip), vehicle: water 115 % of control | dose: 50.0 mg/kg/injection, schedule: Q01DX009 (sc), vehicle: steriod suspending solution 110 % of control | dose: 50.0 mg/kg/injection, schedule: Q04DX002 (sc), vehicle: steriod suspending solution 109 % of control | dose: 50.0 mg/kg/injection, schedule: Q04DX003 (sc), vehicle: steriod suspending solution 100 % of control and 108 % of control and 112 % of control | dose: 50.0 mg/kg/injection, schedule: Q## X008 (sc), vehicle: steriod suspending solution 101 % of control | dose: 60.0 mg/kg/injection, schedule: Q04DX002 (sc), vehicle: water 110 % of control and 111 % of control | dose: 75.0 mg/kg/injection, schedule: Q01DX001 (sc), vehicle: steriod suspending solution 100 % of control | dose: 75.0 mg/kg/injection, schedule: Q04DX002 (sc), vehicle: steriod suspending solution 106 % of control | dose: 90.0 mg/kg/injection, schedule: Q01DX001 (sc), vehicle: steriod suspending solution 114 % of control | dose: 100.0 mg/kg/injection, schedule: Q01DX004 (sc), vehicle: steriod suspending solution 113 % of control | dose: 100.0 mg/kg/injection, schedule: Q01DX008 (sc), vehicle: steriod suspending solution 78 % of control | dose: 100.0 mg/kg/injection, schedule: Q01DX009 (ip), vehicle: water 118 % of control | dose: 100.0 mg/kg/injection, schedule: Q01DX009 (sc), vehicle: steriod suspending solution 102 % of control | dose: 100.0 mg/kg/injection, schedule: Q04DX002 (sc), vehicle: steriod suspending solution 110 % of control | dose: 150.0 mg/kg/injection, schedule: Q04DX003 (ip), vehicle: saline 92 % of control | dose: 150.0 mg/kg/injection, schedule: Q04DX003 (sc), vehicle: steriod suspending solution 105 % of control and 118 % of control and 121 % of control | dose: 180.0 mg/kg/injection, schedule: Q01DX001 (sc), vehicle: steriod suspending solution 120 % of control | dose: 200.0 mg/kg/injection, schedule: Q01DX001 (sc), vehicle: steriod suspending solution 93 % of control and 102 % of control (2×) | dose: 200.0 mg/kg/injection, schedule: Q01DX009 (sc), vehicle: steriod suspending solution 89 % of control | dose: 300.0 mg/kg/injection, schedule: Q04DX003 (ip), vehicle: saline 95 % of control | dose: 300.0 mg/kg/injection, schedule: Q04DX003 (sc), vehicle: steriod suspending solution 114 % of control and 115 % of control (2×) | dose: 400.0 mg/kg/injection, schedule: Q04DX003 (sc), vehicle: steriod suspending solution 95 % of control | dose: 500.0 mg/kg/injection, schedule: Q01DX001 (sc), vehicle: steriod suspending solution 95 % of control | dose: 600.0 mg/kg/injection, schedule: Q01DX001 (sc), vehicle: steriod suspending solution 102 % of control

Cn1c(O)c(C=N)c(=O)n(C)c1=O
inactive: dose: 12.0 mg/kg/injection, schedule: Q01DX001 (ip), vehicle: saline 102 % of control | dose: 12.5 mg/kg/injection, schedule: Q04DX003 (ip), vehicle: saline 97 % of control | dose: 25.0 mg/kg/injection, schedule: Q01DX001 (ip), vehicle: saline 105 % of control | dose: 25.0 mg/kg/injection, schedule: Q04DX003 (ip), vehicle: saline 100 % of control | dose: 50.0 mg/kg/injection, schedule: Q01DX001 (ip), vehicle: saline 100 % of control | dose: 50.0 mg/kg/injection, schedule: Q04DX003 (ip), vehicle: saline 100 % of control

COc1cc2ccc(CC(=O)NCc3ccccc3)cc2cc1OC
inactive: [1] 117 % of control | [2] 107 % of control | dose: 200.0 mg/kg/injection, schedule: Q04DX003 (ip), vehicle: other 95 % of control | [3] 103 % of control

Cc1ccc(OS(=O)(=O)c2ccc([N+](=O)[O-])cc2)cc1
inactive: dose: 90.0 mg/kg/injection, schedule: Q01DX001 (ip), vehicle: Klucel (hydroxypropylcellulose) (HPC) 102 % of control | dose: 135.0 mg/kg/injection, schedule: Q01DX001 (ip), vehicle: Klucel (hydroxypropylcellulose) (HPC) 102 % of control | [4] 100 % of control | dose: 300.0 mg/kg/injection, schedule: Q01DX001 (ip), vehicle: Klucel (hydroxypropylcellulose) (HPC) 93 % of control

COC(=O)C1(C)CCC(c2ccc(C)cc2)=C(CC(=O)O)C1 (stereo not given)
inactive: [1] 97 % of control | [2] 94 % of control | [3] 94 % of control

CC(=O)NC1CC2c3ccccc3C1([N+](=O)[O-])c1ccccc12 (stereo not given)
inactive: dose: 100.0 mg/kg/injection, schedule: Q01DX001 (ip), vehicle: Klucel (hydroxypropylcellulose) (HPC) 104 % of control | [4] 97 % of control | dose: 400.0 mg/kg/injection, schedule: Q01DX001 (ip), vehicle: Klucel (hydroxypropylcellulose) (HPC) 102 % of control

COc1cc([C@@H]2c3cc4c(c(O)c3C[C@H]3COC(=O)[C@@H]32)OCO4)cc(OC)c1O
inactive: dose: 0.12 mg/kg/injection, schedule: Q01DX009 (ip), vehicle: Klucel (hydroxypropylcellulose) (HPC) 105 % of control | dose: 0.25 mg/kg/injection, schedule: Q01DX009 (ip), vehicle: Klucel (hydroxypropylcellulose) (HPC) 97 % of control
